Results: the CheMixHub ionic liquid set
“And” between values parts separate entries of the source, which are not always exact repeats. Identical values can stand only once. ± gives the uncertainty stated by the source.

Assay: xn = mol fraction of the nth substance listed
Conditions: 100 kPa

With `CCOS(=O)(=O)[O-].CC[n+]1ccn(C)c1` + OCCO the viscosity (293.15 K, x1 = 0.2999) was 20.52 ± 0.2 mPa·s, the viscosity (293.15 K, x2 = 0.406) was 41.6 ± 0.9 mPa·s and the electrical conductivity (298.15 K, x1 = 0.001) was 0.0067 S/m and 0.0121 S/m. For the same molecule, the viscosity (298.15 K, x1 = 0.001) was 16 ± 0.3 mPa·s and 16.9 ± 0.4 mPa·s, the viscosity (298.15 K, x2 = 0) was 95.9 ± 2.1 mPa·s and the electrical conductivity (298.15 K, x2 = 0.597) was 0.95 ± 0.04 S/m. It also gave a viscosity (298.15 K, x2 = 0.597) of 21.7 ± 0.5 mPa·s, an electrical conductivity (298.15 K, x2 = 0.851) of 0.72 ± 0.03 S/m and a viscosity (298.15 K, x2 = 0.851) of 14.8 ± 0.3 mPa·s. For the same molecule, the viscosity (303.15 K, x1 = 0.001) was 13.8 ± 0.3 mPa·s, the viscosity (303.15 K, x1 = 0.5992) was 28.04 ± 0.46 mPa·s and the viscosity (303.15 K, x1 = 0.6994) was 37.14 ± 0.69 mPa·s. For the same molecule, the viscosity (303.15 K, x2 = 0.792) was 13 ± 0.3 mPa·s, the viscosity (308.15 K, x1 = 0.1982) was 10.85 ± 0.08 mPa·s and the viscosity (308.15 K, x1 = 0.2999) was 12.62 ± 0.12 mPa·s. For the same molecule, the electrical conductivity (313.15 K, x1 = 0.001) was 0.0115 S/m and 0.0206 S/m, the viscosity (313.15 K, x1 = 0.001) was 9.15 ± 0.19 mPa·s and 9.54 ± 0.2 mPa·s and the electrical conductivity (313.15 K, x1 = 0.003) was 0.0362 ± 0.0015 S/m. For the same molecule, the viscosity (313.15 K, x1 = 0.003) was 9.48 ± 0.2 mPa·s, the electrical conductivity (313.15 K, x1 = 0.008) was 0.097 ± 0.004 S/m and the viscosity (313.15 K, x1 = 0.008) was 9.49 ± 0.2 mPa·s. The viscosity (313.15 K, x1 = 0.1982) was 9.37 ± 0.07 mPa·s, the electrical conductivity (313.15 K, x2 = 0.406) was 1.27 ± 0.05 S/m and the viscosity (313.15 K, x2 = 0.406) was 20.6 ± 0.5 mPa·s. The electrical conductivity (313.15 K, x2 = 0.938) was 0.59 ± 0.02 S/m, the viscosity (313.15 K, x2 = 0.938) was 9.05 ± 0.19 mPa·s and the viscosity (318.15 K, x1 = 0.1982) was 8.15 ± 0.06 mPa·s. It also gave a viscosity (318.15 K, x1 = 0.4002) of 11.61 ± 0.14 mPa·s, a viscosity (318.15 K, x1 = 0.8001) of 27.31 ± 0.57 mPa·s and a viscosity (318.15 K, x1 = 0.8993) of 35.33 ± 0.81 mPa·s. The viscosity (323.15 K, x1 = 0.1003) was 6.66 ± 0.04 mPa·s, the viscosity (333.15 K, x1 = 0.1003) was 5.1 ± 0.03 mPa·s and the viscosity (333.15 K, x1 = 0.1982) was 5.59 ± 0.04 mPa·s. For the same molecule, the viscosity (333.15 K, x1 = 0.5005) was 9.85 ± 0.14 mPa·s, the viscosity (338.15 K, x1 = 0.5992) was 10.45 ± 0.17 mPa·s and the viscosity (343.15 K, x1 = 0.5005) was 7.87 ± 0.11 mPa·s. For the same molecule, the viscosity (343.15 K, x1 = 0.5992) was 9.34 ± 0.15 mPa·s and the viscosity (343.15 K, x1 = 0.8001) was 13.58 ± 0.28 mPa·s.
